In US11180504B2 (ORCHID PHARMA LTD., priority 2016, dated 2021) one finds MIC data, which are given here for 18 compounds.

Converted amounts (≈) assume the structure as drawn. Like-named read-outs stand apart in the source and are kept apart here.

Assay [1] has as its system methicillin-sensitive Staphylococcus aureus. Kind of assay: MIC by broth micro-dilution (CLSI), methicillin-sensitive S. aureus. The class given is cell-based. As to conditions: MSSA S. aureus ATCC29213. On the technique in general: In broth dilution the organism is exposed to a series of concentrations in liquid medium.
Assay [2] deals with carbapenem sensitive Escherichia coli. Nature of the assay: MIC by broth micro-dilution (CLSI), carbapenem sensitive E. coli. The class given is cell-based.
The subject of assay [3] is carbapenemase producing K. pneumoniae. Kind of assay: MIC by broth micro-dilution (CLSI), carbapenemase producing K. pneumoniae. The format is cell-based, Klebsiella pneumoniae.
The subject of assay [4] is carbapenem sensitive Pseudomonas aeruginosa. Kind of assay: MIC by broth micro-dilution (CLSI), carbapenem sensitive P. aeruginosa. The class given is cell-based.
The mark [5] stands for this setting: Staphylococcus aureus, ATCC 29213 / MSSA, read-out: MIC.
The mark [6] stands for this setting: Escherichia coli, ATCC25922, ESBL −ve E. coli ATCC25922, read-out: MIC.
The mark [7] stands for this setting: Klebsiella pneumoniae, ATCCBAA1705, KPC-2 K. pneumoniae ATCC BAA-1705, read-out: MIC.
The mark [8] stands for this setting: Pseudomonas aeruginosa, ATCC27853, Meropenem susceptible P. aeruginosa ATCC27853, read-out: MIC.
[9] abbreviates: KPC-2 K. pneumoniae ATCC BAA-1705.
The mark [10] stands for this setting: Meropenem susceptible P. aeruginosa ATCC27853.

What is called MIC is the least concentration at which growth counts as inhibited. Turning to `CNCC(=O)N[C@H](C)[C@H]1C(=O)N2C(C(=O)O)=C(S[C@@H]3CN[C@H](CNS(=O)(=O)N4CC[C@H](N)C4)C3)[C@H](C)[C@H]12` [Example 253], the minimum inhibitory concentration (MIC) in assay [1] (setting [5]) is 32 µg/mL (≈ 57.2 µM); in assay [2] (setting [6]), 16 µg/mL (≈ 28.6 µM); in assay [3] (setting [7]) it was 16 µg/mL (≈ 28.6 µM); in assay [4] (setting [8]) it was 16 µg/mL (≈ 28.6 µM).

As for `C[C@@H](NC(=O)Cn1cnnn1)[C@H]1C(=O)N2C(C(=O)O)=C(S[C@@H]3CN[C@H](C(=O)N4CC5CCN(C(=N)N)C5C4)C3)[C@H](C)[C@H]12` (single isomer, unassigned) [Example 570], the MIC came out at 1 µg/mL (≈ 1.66 µM) in assay [1], 0.125 µg/mL (≈ 0.208 µM) in assay [2] (ESBL −ve E. coli ATCC25922), 1 µg/mL (≈ 1.66 µM) in assay [3] (setting [9]) and 2 µg/mL (≈ 3.32 µM) in assay [4] (setting [10]).

`C[C@@H](NC(=O)Cn1cnnn1)[C@H]1C(=O)N2C(C(=O)[O-])=C(S[C@@H]3CN[C@H](C(=O)N4CCC5C[N+](C)(C)CCC54)C3)[C@H](C)[C@H]12` (stereo partly drawn) [Example 598]: the MIC turned out to be 8 µg/mL (≈ 13.3 µM) in assay [1] (Staphylococcus aureus, ATCC29213|MSSA, read-out: MIC); 1 µg/mL (≈ 1.66 µM) in assay [2] (setting [6]); 2 µg/mL (≈ 3.32 µM) in assay [3] (setting [7]); 16 µg/mL (≈ 26.6 µM) in assay [4] (setting [10]).

For `COCCNCC(=O)N[C@H](C)[C@H]1C(=O)N2C(C(=O)O)=C(S[C@@H]3CN[C@H](C(=O)N(C)C)C3)[C@H](C)[C@H]12` [Example 518, (4R,5S,6R)-3-((3S,5S)-5-(dimethylcarbamoyl)pyrrolidin-3-ylthio)-6-((R)-1-(2-(2-methoxyethylamino)acetamido)ethyl)-4-methyl-7-oxo-1-azabicyclo[3.2.0]hept-2-ene-2-carboxylic acid], the MIC in assay [1] (setting [5]) was found to be 8 µg/mL (≈ 16.1 µM); in assay [2] (setting [6]), 1 µg/mL (≈ 2.01 µM); in assay [3] (setting [7]), 4 µg/mL (≈ 8.04 µM); in assay [4] (setting [8]) it was 128 µg/mL (≈ 257 µM).

Turning to `C[C@@H](NC(=O)Cn1cnnn1)[C@H]1C(=O)N2C(C(=O)O)=C(S[C@@H]3CN[C@H](C(=O)N4CC(NC(=N)N)C4)C3)[C@H](C)[C@H]12` [Example 566, (4R,5S,6R)-6-((R)-1-(2-(1H-tetrazol-1-yl)acetamido)ethyl)-3-((3S,5S)-5-(3-guanidinoazetidine-1-carbonyl)pyrrolidin-3-ylthio)-4-methyl-7-oxo-1-azabicyclo[3.2.0]hept-2-ene-2-carboxylic acid], the MIC in assay [1] (setting [5]) came to 0.5 µg/mL (≈ 0.89 µM); in assay [2] (setting [6]), 0.06 µg/mL (≈ 0.107 µM); in assay [3] (setting [7]) it was 0.5 µg/mL (≈ 0.89 µM); in assay [4] (setting [8]), 0.25 µg/mL (≈ 0.445 µM).

`C[C@@H](NC(=O)C(F)F)[C@H]1C(=O)N2C(C(=O)O)=C(SC[C@@H]3CNCCN3)[C@H](C)[C@H]12` [Example 289]: the MIC in assay [1] (setting [5]) is 8 µg/mL (≈ 19.1 µM); in assay [2] (setting [6]) it was 8 µg/mL (≈ 19.1 µM); in assay [3] (setting [7]), 16 µg/mL (≈ 38.2 µM); in assay [4] (setting [8]), > 128 µg/mL.

On to `C[C@@H](NC(=O)Cn1cnnn1)[C@H]1C(=O)N2C(C(=O)O)=C(S[C@@H]3CN[C@H](C(=O)N4CCC(N)(CO)CC4)C3)[C@H](C)[C@H]12` [Example 475, (4R,5S,6R)-6-((R)-1-(2-(1H-tetrazol-1-yl)acetamido)ethyl)-3-((3S,5S)-5-(4-amino-4-(hydroxymethyl)piperidine-1-carbonyl)pyrrolidin-3-ylthio)-4-methyl-7-oxo-1-azabicyclo[3.2.0]hept-2-ene-2-carboxylic acid], for which the MIC in assay [1] (setting [5]) worked out at 4 µg/mL (≈ 6.92 µM); in assay [2] (setting [6]), 0.5 µg/mL (≈ 0.866 µM); in assay [3] (setting [7]) it was 2 µg/mL (≈ 3.46 µM); in assay [4] (setting [8]), 2 µg/mL (≈ 3.46 µM).

For `C[C@@H](NC(=O)Cn1cnnn1)[C@H]1C(=O)N2C(C(=O)O)=C(S[C@@H]3CN[C@H](C(=O)N4CCC(N)(CO)C4)C3)[C@H](C)[C@H]12` (single isomer, unassigned) [Example 497], the MIC in assay [1] was determined as 4 µg/mL (≈ 7.1 µM); in assay [2] (ESBL −ve E. coli ATCC25922), 0.25 µg/mL (≈ 0.444 µM); in assay [3] (setting [9]) it was 2 µg/mL (≈ 3.55 µM); in assay [4] (setting [10]), 4 µg/mL (≈ 7.1 µM).

Take `CNCC(=O)N[C@H](C)[C@H]1C(=O)N2C(C(=O)O)=C(S[C@@H]3CN[C@H](CNC(=O)c4cc(=O)c(O)cn4C)C3)[C@H](C)[C@H]12` [Example 254]: the MIC in assay [1] (setting [5]) stood at 64 µg/mL (≈ 114 µM); in assay [2] (setting [6]) it was 8 µg/mL (≈ 14.2 µM); in assay [3] (setting [7]) it was 16 µg/mL (≈ 28.4 µM); in assay [4] (setting [8]), 128 µg/mL (≈ 227 µM).

On to `C[C@@H](NC(=O)Cn1cnnn1)[C@H]1C(=O)N2C(C(=O)O)=C(S[C@@H]3CN[C@H](C(=O)N4CCC[C@@H]4CN)C3)[C@H](C)[C@H]12` [Example 465, (4R,5S,6R)-6-((R)-1-(2-(1H-tetrazol-1-yl)acetamido)ethyl)-3-((3S,5S)-5-((R)-2-(aminomethyl)pyrrolidine-1-carbonyl)pyrrolidin-3-ylthio)-4-methyl-7-oxo-1-azabicyclo[3.2.0]hept-2-ene-2-carboxylic acid], for which the MIC is 4 µg/mL (≈ 7.3 µM) in assay [1] (setting [5]), 0.5 µg/mL (≈ 0.913 µM) in assay [2] (setting [6]), 2 µg/mL (≈ 3.65 µM) in assay [3] (setting [7]) and 16 µg/mL (≈ 29.2 µM) in assay [4] (setting [8]).

With `C[C@@H](NC(=O)CC1CCCN1)[C@H]1C(=O)N2C(C(=O)O)=C(S[C@@H]3CN[C@H](C(=O)N4CCC(N)C4)C3)[C@H](C)[C@H]12` (stereo in doubt) [Example 509, (4R,5S,6R)-3-((3S,5S)-5-((R)-3-aminopyrrolidine-1-carbonyl)pyrrolidin-3-ylthio)-4-methyl-7-oxo-6-((R)-1-(2-((S)-pyrrolidin-2-yl)acetamido)ethyl)-1-azabicyclo[3.2.0]hept-2-ene-2-carboxylic acid], the minimal inhibitory concentration (MIC) amounted to 32 µg/mL (≈ 59.8 µM) in assay [1] (setting [5]), 4 µg/mL (≈ 7.48 µM) in assay [2] (setting [6]), 4 µg/mL (≈ 7.48 µM) in assay [3] (setting [7]) and 32 µg/mL (≈ 59.8 µM) in assay [4] (setting [8]).

Regarding `C[C@@H](NC(=O)Cn1cnnn1)[C@H]1C(=O)N2C(C(=O)O)=C(S[C@@H]3CN[C@H](C(=O)N4C[C@H](N)C[C@H]4CNS(N)(=O)=O)C3)[C@H](C)[C@H]12` [Example 455, (4R,5S,6R)-6-((R)-1-(2-(1H-tetrazol-1-yl)acetamido)ethyl)-3-((3S,5S)-5-((2S,4R)-4-amino-2-((sulfamoylamino)methyl)pyrrolidine-1-carbonyl)pyrrolidin-3-ylthio)-4-methyl-7-oxo-1-azabicyclo[3.2.0]hept-2-ene-2-carboxylic acid], the MIC in assay [1] (setting [5]) was found to be 4 µg/mL (≈ 6.23 µM); in assay [2] (setting [6]), 0.5 µg/mL (≈ 0.779 µM); in assay [3] (setting [7]) it was 2 µg/mL (≈ 3.12 µM); in assay [4] (setting [8]), 4 µg/mL (≈ 6.23 µM).

Regarding `C[C@H]([C@H]1C(=O)N2C(C(=O)O)=C(S[C@@H]3CN[C@H](C(=O)N4CC[C@@H](N)C4)C3)[C@H](C)[C@H]12)n1nnc(N)n1` [Example 327, (4R,5S,6S)-6-((R) - 1-(5-amino-2H-tetrazol-2-yl)ethyl)-3-((3S,5S)-5-((R)-3-aminopyrrolidine-1-carbonyl)pyrrolidin-3-ylthio)-4-methyl-7-oxo-1-azabicyclo[3.2.0]hept-2-ene-2-carboxylic acid], the MIC is 1 µg/mL (≈ 2.03 µM) in assay [1] (setting [5]), 2 µg/mL (≈ 4.07 µM) in assay [2] (setting [6]), 32 µg/mL (≈ 65.1 µM) in assay [3] (setting [7]) and 64 µg/mL (≈ 130 µM) in assay [4] (setting [8]).

In the case of `C[C@@H](NC(=O)Cn1cnnn1)[C@H]1C(=O)N2C(C(=O)O)=C(S[C@@H]3CN[C@H](C(=O)N4CC[C@@H](NC(=N)N)C4)C3)[C@H](C)[C@H]12` [Example 399, (4R,5S,6R)-6-((R)-1-(2-(1H-tetrazol-1-yl)acetamido)ethyl)-3-((3S,5S)-5-((R)-3-guanidinopyrrolidine-1-carbonyl)pyrrolidin-3-ylthio)-4-methyl-7-oxo-1-azabicyclo[3.2.0]hept-2-ene-2-carboxylic acid], the MIC in assay [1] (setting [5]) was found to be 2 µg/mL (≈ 3.47 µM); in assay [2] (setting [6]) it was 0.125 µg/mL (≈ 0.217 µM); in assay [3] (setting [7]) it was 2 µg/mL (≈ 3.47 µM); in assay [4] (setting [8]) it was 8 µg/mL (≈ 13.9 µM).

For `C[C@@H](NC(=O)Cn1cnnn1)[C@H]1C(=O)N2C(C(=O)O)=C(S[C@@H]3CN[C@H](C(=O)N4CCN(CCNC(=N)N)CC4)C3)[C@H](C)[C@H]12` [Example 432, (4R,5S,6R)-6-((R)-1-(2-(1H-tetrazol-1-yl)acetamido)ethyl)-3-((3S,5S)-5-(4-(2-guanidinoethyl)piperazine-1-carbonyl)pyrrolidin-3-ylthio)-4-methyl-7-oxo-1-azabicyclo[3.2.0]hept-2-ene-2-carboxylic acid], the MIC came to 2 µg/mL (≈ 3.23 µM) in assay [1] (setting [5]), 0.25 µg/mL (≈ 0.404 µM) in assay [2] (setting [6]), 1 µg/mL (≈ 1.62 µM) in assay [3] (setting [7]) and 1 µg/mL (≈ 1.62 µM) in assay [4] (setting [8]).

As for `C[C@@H](NC(=O)C(F)F)[C@H]1C(=O)N2C(C(=O)O)=C(S[C@@H]3CN[C@H](CNC(=O)[C@@H]4CC[C@H](N)C4)C3)[C@H](C)[C@H]12` [Example 260], the minimal inhibitory concentration (MIC) stood at 1 µg/mL (≈ 1.89 µM) in assay [1] (setting [5]), 4 µg/mL (≈ 7.55 µM) in assay [2] (setting [6]), 8 µg/mL (≈ 15.1 µM) in assay [3] (setting [7]) and 32 µg/mL (≈ 60.4 µM) in assay [4] (setting [8]).

For the compound `C[C@@H](NC(=O)Cn1nnnc1-c1cccs1)[C@H]1C(=O)N2C(C(=O)O)=C(S[C@@H]3CN[C@H](C(=O)N4CC[C@@H](N)C4)C3)[C@H](C)[C@H]12` [Example 358, (4R,5S,6R)-3-((3S,5S)-5-((R)-3-aminopyrrolidine-1-carbonyl)pyrrolidin-3-ylthio)-4-methyl-7-oxo-6-((R)-1-(2-(5-(thiophen-2-yl)-1H-tetrazol-1-yl)acetamido)ethyl)-1-azabicyclo[3.2.0]hept-2-ene-2-carboxylic acid], the MIC in assay [1] (setting [5]) was 1 µg/mL (≈ 1.62 µM); in assay [2] (setting [6]) it was 1 µg/mL (≈ 1.62 µM); in assay [3] (setting [7]), 32 µg/mL (≈ 52 µM); in assay [4] (setting [8]) it was > 128 µg/mL.

`C[C@@H](NC(=O)Cn1cnnn1)[C@H]1C(=O)N2C(C(=O)O)=C(S[C@@H]3CN[C@H](C(=O)N4CC[C@@H](NC(=O)CN)C4)C3)[C@H](C)[C@H]12` [Example 398, (4R,5S,6R)-6-((R)-1-(2-(1H-tetrazol-1-yl)acetamido)ethyl)-3-((3S,5S)-5-((R)-3-(2-aminoacetamido)pyrrolidine-1-carbonyl)pyrrolidin-3-ylthio)-4-methyl-7-oxo-1-azabicyclo[3.2.0]hept-2-ene-2-carboxylic acid]: the minimal inhibitory concentration (MIC) stood at 4 µg/mL (≈ 6.77 µM) in assay [1] (setting [5]), 0.25 µg/mL (≈ 0.423 µM) in assay [2] (setting [6]), 1 µg/mL (≈ 1.69 µM) in assay [3] (setting [7]) and 2 µg/mL (≈ 3.39 µM) in assay [4] (setting [8]).
